In one assay the test system is db/db mice. Kind of assay: Hepatic triglyceride, liver histology, serum ALT and ALP in high-fat diet fed db/db mice. Type of assay: in vivo, mouse. The following applies: 10 mg/kg once daily for 10 days. Put shortly: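 High-fat diet fed db/db mice aged 8-10 weeks dosed 10 mg/kg compound once daily for 10 days. Liver sections stained with H&E and 0.3% oil red O; hepatic triglyceride measured by tissue assay kit; serum ALP and ALT activities measured by kit.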

For assay [1], the system named is human hepatoma HepG2 cells. Kind of assay: MTT cell viability assay, HepG2. Type of assay: cell-based. The following applies: 48 h, read-out: Cell viability as a percentage of the cells treated with DMSO, HepG2. Put shortly: (§1)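 MTT read-out of cell viability, given relative to DMSO-treated controls, after exposure to 20 uM or 40 uM compound. Cells were grown in DMEM supplemented with 10% fetal bovine serum.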

The target in another assay is T1, full-length FXR (Homo sapiens, UniProt Q96RI1).
T1 construct: The cells were co-transfected with plasmids encoding full-length FXR and the cognate luciferase reporter EcRE-Luc; expressed in transfected cells; host or cells: COS-7
T1 sequence (Q96RI1 1-486): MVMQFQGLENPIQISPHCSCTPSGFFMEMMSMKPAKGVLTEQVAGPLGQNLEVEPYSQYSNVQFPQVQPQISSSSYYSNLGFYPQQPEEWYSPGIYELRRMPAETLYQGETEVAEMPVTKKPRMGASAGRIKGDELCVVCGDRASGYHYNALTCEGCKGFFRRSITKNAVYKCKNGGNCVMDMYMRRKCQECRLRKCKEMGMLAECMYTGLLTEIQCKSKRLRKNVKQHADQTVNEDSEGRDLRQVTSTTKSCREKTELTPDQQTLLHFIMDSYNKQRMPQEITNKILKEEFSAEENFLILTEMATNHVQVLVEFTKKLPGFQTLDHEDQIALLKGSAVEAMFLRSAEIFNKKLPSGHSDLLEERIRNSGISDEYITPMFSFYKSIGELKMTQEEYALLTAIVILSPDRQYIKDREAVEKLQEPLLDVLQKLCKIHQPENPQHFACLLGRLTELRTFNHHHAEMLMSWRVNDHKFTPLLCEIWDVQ
In words: Cell-based FXR transactivation, EcRE luciferase reporter in COS-7 cells. The following applies: Table 2. Put shortly:
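COS-7 cells were transiently cotransfected with full-length FXR, EcRE-Luc reporter and a renilla control. Ligands were added 5 h after transfection, and cells were harvested 24 h later. Firefly luciferase was normalized to renilla in a dual-luciferase read-out.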

Assay [2] relates to human colorectal adenocarcinoma HCT15 cells. In words: MTT cell viability assay, HCT15. The following applies: 48 h, read-out: Cell viability as a percentage of the cells treated with DMSO, HCT15. The class given is cell-based. Put shortly:
as §1

The subject of assay [3] is human cervical carcinoma Hela cells. Kind of assay: MTT cell viability assay, Hela. To be noted: 48 h, read-out: Cell viability as a percentage of the cells treated with DMSO, Hela. Type of assay: cell-based. A digest of the protocol:
as §1

The subject of assay [4] is RA-resistant human colon cancer HCT116 cells. In words: MTT cell viability assay, HCT116. The following applies: 48 h, read-out: Cell viability as a percentage of the cells treated with DMSO, HCT116. The class given is cell-based. A digest of the protocol:
as §1

Assay [5] concerns the target T2, FXR ligand binding domain (LBD) (Homo sapiens, UniProt Q96RI1).
T2 construct: made in house
T2 sequence (Q96RI1 262-486 limits assumed): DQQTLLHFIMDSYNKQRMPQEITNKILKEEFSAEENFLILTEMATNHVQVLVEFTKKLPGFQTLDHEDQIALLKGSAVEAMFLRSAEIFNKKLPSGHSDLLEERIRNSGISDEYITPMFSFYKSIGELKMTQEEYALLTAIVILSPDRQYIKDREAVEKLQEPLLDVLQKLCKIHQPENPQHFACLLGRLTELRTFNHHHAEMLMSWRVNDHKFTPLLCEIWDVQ
Kind of assay: AlphaScreen assay: FXR LBD recruitment of coregulator peptide motifs (SRC2-3, SRC1-2). Type of assay: biochemical. The following applies: Table 2.

The test system of assay [6] is inflammatory cytokines in tissues of db/db mice. Kind of assay: Inflammatory cytokine mRNA levels in tissues of high-fat diet fed db/db mice (RT-PCR). Type of assay: in vivo, mouse. The following applies: 5 mg/kg. The source says:
In this example, we detected the levels of various inflammatory cytokines including iNOS, IFNγ, TGFβ, TNFα, COX2, IL-1β, IL-6, SAA1, MIP-1α and CD36 in liver, kidney, white adipose tissue (WAT) in various mice models, including wild type mice treated with APAP in example 4, high-fat diet fed diabetic and obesity db/db and KK-Ay mice in example 5, high-fat diet fed wild-type mice in Example 5, as well as in primary hepatocytes with LPS induced inflammation, using RT-PCR.

Assay [7] has as its system human breast cancer MCF7 cells. In words: MTT cell viability assay, MCF-7. The class given is cell-based. To be noted: 48 h, read-out: Cell viability as a percentage of the cells treated with DMSO, MCF-7. Put shortly:
as §1

Like-named read-outs stand apart in the source and are kept apart here. Marks after values point to notes of the source that are not given here.

The values that follow come from US20180116993A1, “MODULATORS OF FARNESOID X RECEPTOR AND METHODS FOR THE USE THEREOF” (XIAMEN UNIVERSITY, priority 2015, published 2018).

With `COc1cc(C(=O)OC2CCC3CCCCC3C2)ccc1N` (stereo not drawn) [XD-32, decahydro-naphthalen-2-yl 4-amino-3-methoxybenzoate], in the assay with db/db mice (vehicle 129 ± 15), the “Serum ALP (U/L)” value is 83 ± 23^a U/L. Further, the “Serum ALT (U/L)” value in the assay with db/db mice (vehicle 377 ± 48, Table 17) was 110 ± 42^a U/L. For the same molecule, the viability at 20 µM is 100 ± 7% in assay [1] (20 uM); 80 ± 7% in assay [2] (HCT-15, 20 uM); 73% in assay [3] (20 uM); 65 ± 7% in [4] (HCT-116, 20 uM); 100 ± 7% in [7] (20 uM). Besides, the viability at 40 µM in [1] (40 uM) came out at 74 ± 7%; in assay [2] (HCT-15, 40 uM), 35 ± 7%; in assay [3] (40 uM), 30 ± 7%; in assay [4] (HCT-116, 40 uM) it was 53 ± 7%; in assay [7] (40 uM) it was 95 ± 7%. Further, the “Cell-based FXR transactivation Fold changes by 5 μM compound” value on full-length FXR (5 μM compound, positive: induction, minus: repression) is recorded as −5. Also, the EC50 was < 1000 nM at full-length FXR (EcRE luciferase reporter); < 1 µM in assay [5] (SRC1-2 peptide, read-out: EC50 (μM) of FXR binding by AlphaScreen assay recruit SRC1-2); < 1 µM in assay [5] (SRC2-3 peptide, read-out: EC50 (μM) of FXR binding by AlphaScreen assay recruit SRC2-3). The “mRNA level of iNOS (fold), Liver tissue” value in assay [6] (vehicle 1.06 ± 0.14) is listed as 0.22 ± 0.12^a fold. Further, the “mRNA level of iNOS (fold), Colon tissue” value in assay [6] (vehicle 1.12 ± 0.23) is on record as 0.45 ± 0.13^a fold.
